{"source": "patent US9458437B2", "about": "“Neuroprotective peptides that inhibit interaction between palmitoyl acyl transferase zinc-finger DHHC type containing 17 (zD17) and c-jun N-terminal kinase (JNK)” (The University of British Columbia, priority 2011, dated 2016)", "system": "cultured neurons", "test": "axonal development in cultured neurons (Tau-1 labelling)", "type": "cell-based, rat", "procedure": "For biochemical studies, neurons were seeded in six-well culture plates with a density of 7.5×10^5 cells per well. For LDH assay and cell death detection, 24-well culture plates were used with a neuron density of 2.5×10^5 cells per well. Neurons of 14-17 days in vitro (DIV) were used for experiments. […] HEK 293 cells were maintained in DMEM (Invitrogen™) supplemented with 10% fetal bovine serum and 1% penicillin/streptomycin. For protein expression in cell lines, cells were transfected with Calcium Phosphate Transfection reagent (Promega™, San Luis Obispo, Calif., USA) and used 24 h later as described previously (Yang et al., 2009). The JNK inhibitor, L-JNKI, was purchased from Alexis Biochemicals™ (San Diego, Calif.). Thrombin was obtained from BIOPUR™ (Bubendorf, Switzerland). Other assay reagents without indication were obtained from Sigma™.\nCultured hippocampal neurons on glass coverslips were used for immunostaining. After treatments indicated in the text, neurons were fixed with 2% paraformaldehyde for 3 min at room temperature followed by permeabilization with ice-cold methanol for 10 min at −20° C. The coverslips were then washed three times with PBS and immunostained with appropriate antibodies dissolved in PBS for 1 h at room temperature. After washing three times with PBS, coverslips were incubated with Alexa-labeled secondary antibodies from Invitrogen for an additional 1 h. For mitochondrial detection, neuronal cultures were incubated at 37° C. for 30 min with 2 μM MitoTracker-TR (Invitrogen™). Coverslips were then fixed and mounted with ProLong Gold Antifade Reagent (Invitrogen™). Fluorescence was captured using a Zeiss Observer Z1™ microscope and all images were analyzed with ImageJ™ and processed using Adobe Photoshop™."}
{"sequence": "MTPLMWAAYRTHSVDPTRLL (listed as Homo sapiens) [NIMoE, peptide comprising motif-E of zD17, fused to the cell-membrane transduction domain of HIV-1 Tat for cell experiments]", "values": [{"measurement": "axon extension (length)", "setting": "NIMoE incubation, control 160.0±8.9", "value": "161.1±13.6"}, {"measurement": "effect on axon initiation and extension", "setting": "chronic incubation in cultured neurons", "value": "did not affect"}, {"measurement": "axon initiation rate normalized to control", "setting": "incubation of cultured neurons, Tau-1 marker", "value": "98.6±0.2", "unit": "%"}]}
